# In patent publication US20060287247A1, “Halogen-substituted thienyl compounds” (priority 2001, published 2006):
# Test system: S. aureus ATCC 29213
# Assay: NCCLS broth microdilution MIC
# Type: cell-based, Staphylococcus aureus
# Conditions: A = S. aureus ATCC 29213
# Protocol: (§1) Compounds according to this invention were screened for their in vitro activities against selected species of bacteria and fungi. The minimal inhibition concentration (MIC) of these compounds was determined using the National Committee for Clinical Laboratory Standards (NCCLS) broth microdilution assay in microtiter plates, as set forth in: (1) the guidelines of the National Committee for Clinical Laboratory Standards (NCCLS) Document M7-A4 (NCCLS, 1997); (2) the guidelines of the National Committee for Clinical Laboratory Standards (NCCLS) Document M11-A4 (NCCLS, 1997); and (3) the guidelines and reference method of the National Committee for Clinical Laboratory Standards (NCCLS) Document M27-T (NCCLS, 1995). For antifungal essays, the method recommended in Murray, P R., 1995 Manual of Clinical Microbiology (ASM Press, Washington, D.C.), was employed. […]
row,Compound,Minimum Inhibitory Concentration (MIC)
1,CC(C)S(=O)(=O)c1csc(C(=O)Nc2csc(C(=O)Nc3cc(C(=O)Nc4cc(C(=O)NCCN5CCOCC5)n(C)c4)n(C)c3)c2)c1Cl [Ig-4],+++ (+++ = MIC ≦4)
2,Cn1cc(NC(=O)c2cc(NC(=O)c3cc(NC(=O)c4sccc4F)cs3)cn2C)cc1C(=O)NCCN1CCOCC1 [Ig-5],+++ (+++ = MIC ≦4)

# Same assay, conditions: Staphylococcus aureus, ATCC29213, read-out: Minimum Inhibitory Concentration (MIC)
row,Compound,MIC
1,"Cn1cc(NC(=O)c2cc(NC(=O)c3cc(NC=O)cn3C)cn2C)cc1C(=O)NCCC(=N)N [Distamycin, distamycin, reference compound]",12 to 32 µg/mL
2,"Cn1cc(NC(=O)c2cc(NC(=O)CNC(=N)N)cn2C)cc1C(=O)NCCC(=N)N [Netropsin, netropsin, reference compound]",< 4 µg/mL

# Same assay, conditions: Staphylococcus aureus, ATCC29213; A = S. aureus ATCC 29213; read-out: Minimum Inhibitory Concentration (MIC)
row,Compound,MIC
1,"CC1COc2c(N3CCN(C)CC3)c(F)cc3c(=O)c(C(=O)O)cn1c23 (stereo not drawn) [Ofloxacin, reference compound]",< 4 µg/mL

# Test system: S. pneumoniae ATCC 49619
# Assay: NCCLS broth microdilution MIC
# Type: cell-based, Streptococcus pneumoniae
# Conditions: F = S. pneumoniae ATCC 49619
# Protocol: as §1
row,Compound,Minimum Inhibitory Concentration (MIC)
1,Cn1cc(NC(=O)c2cc(NC(=O)c3cc(NC(=O)c4cc(NC(=O)c5sccc5Cl)cn4C)cn3C)cn2C)cc1C(=O)NCCN1CCOCC1 [Ie-12],+++ (+++ = MIC ≦4)
2,Cn1cc(NC(=O)c2cc(NC(=O)c3cc(NC(=O)c4sccc4Cl)cn3C)cn2C)cc1C(=O)NCCN1CCC(F)CC1 [Ie-13],+++ (+++ = MIC ≦4)
3,Cn1cc(NC(=O)c2cc(NC(=O)c3cc(NC(=O)c4scc(Br)c4Cl)cn3C)cn2C)cc1C(=O)NCCN1CCSCC1 [Ie-14],+++ (+++ = MIC ≦4)
4,Cn1cc(NC(=O)c2cc(NC(=O)c3cc(NC(=O)c4scc(Br)c4Cl)cn3C)cn2C)cc1C(=O)NCCN1CCCCC1 [Ie-15],+++ (+++ = MIC ≦4)
5,CC(C)S(=O)(=O)c1csc(C(=O)Nc2csc(C(=O)Nc3cc(C(=O)Nc4cc(C(=O)NCCN5CCOCC5)n(C)c4)n(C)c3)c2)c1Cl [Ig-4],+++ (+++ = MIC ≦4)
6,Cn1cc(NC(=O)c2cc(NC(=O)c3cc(NC(=O)c4sccc4F)cs3)cn2C)cc1C(=O)NCCN1CCOCC1 [Ig-5],+++ (+++ = MIC ≦4)
7,Cn1cc(NC(=O)c2cc(NC(=O)c3nc(NC(=O)c4scc(Br)c4Cl)cn3C)cn2C)cc1C(=O)NCCN1CCSCC1 [Ig-10],+++ (+++ = MIC ≦4)

# Same assay, conditions: Streptococcus pneumoniae, ATCC49619, read-out: Minimum Inhibitory Concentration (MIC)
row,Compound,MIC
1,"Cn1cc(NC(=O)c2cc(NC(=O)c3cc(NC=O)cn3C)cn2C)cc1C(=O)NCCC(=N)N [Distamycin, distamycin, reference compound]",12 to 32 µg/mL
2,"Cn1cc(NC(=O)c2cc(NC(=O)CNC(=N)N)cn2C)cc1C(=O)NCCC(=N)N [Netropsin, netropsin, reference compound]",< 4 µg/mL

# Same assay, conditions: Streptococcus pneumoniae, ATCC49619; F = S. pneumoniae ATCC 49619; read-out: Minimum Inhibitory Concentration (MIC)
row,Compound,MIC
1,Cn1cc(NC(=O)c2cc(NC(=O)c3ccc(NC(=O)c4nc(NC(=O)c5sccc5Cl)cn4C)cc3)cn2C)cc1C(=O)NCCN1CCC(F)(F)CC1 [Ih-2],< 4 µg/mL
2,"CC1COc2c(N3CCN(C)CC3)c(F)cc3c(=O)c(C(=O)O)cn1c23 (stereo not drawn) [Ofloxacin, reference compound]",< 4 µg/mL

# Test system: E. faecalis ATCC 29212
# Assay: NCCLS broth microdilution MIC
# Type: cell-based, Enterococcus faecalis
# Conditions: B = E. faecalis ATCC 29212
# Protocol: as §1
row,Compound,Minimum Inhibitory Concentration (MIC)
1,Cn1cc(NC(=O)c2cc(NC(=O)c3cc(NC(=O)c4cc(NC(=O)c5sccc5Cl)cn4C)cn3C)cn2C)cc1C(=O)NCCN1CCOCC1 [Ie-12],+++ (+++ = MIC ≦4)
2,Cn1cc(NC(=O)c2cc(NC(=O)c3cc(NC(=O)c4sccc4Cl)cn3C)cn2C)cc1C(=O)NCCN1CCC(F)CC1 [Ie-13],+++ (+++ = MIC ≦4)
3,Cn1cc(NC(=O)c2cc(NC(=O)c3cc(NC(=O)c4scc(Br)c4Cl)cn3C)cn2C)cc1C(=O)NCCN1CCSCC1 [Ie-14],+++ (+++ = MIC ≦4)
4,Cn1cc(NC(=O)c2cc(NC(=O)c3cc(NC(=O)c4scc(Br)c4Cl)cn3C)cn2C)cc1C(=O)NCCN1CCCCC1 [Ie-15],+++ (+++ = MIC ≦4)
5,CC(C)S(=O)(=O)c1csc(C(=O)Nc2csc(C(=O)Nc3cc(C(=O)Nc4cc(C(=O)NCCN5CCOCC5)n(C)c4)n(C)c3)c2)c1Cl [Ig-4],+++ (+++ = MIC ≦4)
6,Cn1cc(NC(=O)c2cc(NC(=O)c3cc(NC(=O)c4sccc4F)cs3)cn2C)cc1C(=O)NCCN1CCOCC1 [Ig-5],+++ (+++ = MIC ≦4)
7,Cn1cc(NC(=O)c2cc(NC(=O)c3nc(NC(=O)c4scc(Br)c4Cl)cn3C)cn2C)cc1C(=O)NCCN1CCSCC1 [Ig-10],+++ (+++ = MIC ≦4)

# Same assay, conditions: Enterococcus faecalis, ATCC29212, read-out: Minimum Inhibitory Concentration (MIC)
row,Compound,MIC
1,"Cn1cc(NC(=O)c2cc(NC(=O)c3cc(NC=O)cn3C)cn2C)cc1C(=O)NCCC(=N)N [Distamycin, distamycin, reference compound]",12 to 32 µg/mL
2,"Cn1cc(NC(=O)c2cc(NC(=O)CNC(=N)N)cn2C)cc1C(=O)NCCC(=N)N [Netropsin, netropsin, reference compound]",< 4 µg/mL

# Same assay, conditions: Enterococcus faecalis, ATCC29212; B = E. faecalis ATCC 29212; read-out: Minimum Inhibitory Concentration (MIC)
row,Compound,MIC
1,Cn1cc(NC(=O)c2cc(NC(=O)c3ccc(NC(=O)c4nc(NC(=O)c5sccc5Cl)cn4C)cc3)cn2C)cc1C(=O)NCCN1CCC(F)(F)CC1 [Ih-2],< 4 µg/mL
2,"CC1COc2c(N3CCN(C)CC3)c(F)cc3c(=O)c(C(=O)O)cn1c23 (stereo not drawn) [Ofloxacin, reference compound]",4 to 12 µg/mL

# Test system: C. albicans ATCC 38247
# Assay: NCCLS broth microdilution MIC (antifungal)
# Type: cell-based
# Conditions: Candida albicans, ATCC38247, read-out: Minimum Inhibitory Concentration (MIC)
# Protocol: as §1
row,Compound,MIC
1,"Cn1cc(NC(=O)c2cc(NC(=O)c3cc(NC=O)cn3C)cn2C)cc1C(=O)NCCC(=N)N [Distamycin, distamycin, reference compound]",> 32 µg/mL

# Same assay, conditions: Candida albicans, ATCC38247; E = C. albicans ATCC 38247; read-out: Minimum Inhibitory Concentration (MIC)
row,Compound,MIC
1,Cn1cc(NC(=O)c2cc(NC(=O)c3ccc(NC(=O)c4nc(NC(=O)c5sccc5Cl)cn4C)cc3)cn2C)cc1C(=O)NCCN1CCC(F)(F)CC1 [Ih-2],> 32 µg/mL

# Same assay, conditions: E = C. albicans ATCC 38247
row,Compound,Minimum Inhibitory Concentration (MIC)
1,Cn1cc(NC(=O)c2cc(NC(=O)c3cc(NC(=O)c4cc(NC(=O)c5sccc5Cl)cn4C)cn3C)cn2C)cc1C(=O)NCCN1CCOCC1 [Ie-12],>32 µg/mL
2,Cn1cc(NC(=O)c2cc(NC(=O)c3cc(NC(=O)c4sccc4Cl)cn3C)cn2C)cc1C(=O)NCCN1CCC(F)CC1 [Ie-13],>32 µg/mL
3,Cn1cc(NC(=O)c2cc(NC(=O)c3cc(NC(=O)c4scc(Br)c4Cl)cn3C)cn2C)cc1C(=O)NCCN1CCSCC1 [Ie-14],>32 µg/mL
4,Cn1cc(NC(=O)c2cc(NC(=O)c3cc(NC(=O)c4scc(Br)c4Cl)cn3C)cn2C)cc1C(=O)NCCN1CCCCC1 [Ie-15],"+ (+ = MIC from 12 to 32, inclusive)"
5,CC(C)S(=O)(=O)c1csc(C(=O)Nc2csc(C(=O)Nc3cc(C(=O)Nc4cc(C(=O)NCCN5CCOCC5)n(C)c4)n(C)c3)c2)c1Cl [Ig-4],>32 µg/mL
6,Cn1cc(NC(=O)c2cc(NC(=O)c3cc(NC(=O)c4sccc4F)cs3)cn2C)cc1C(=O)NCCN1CCOCC1 [Ig-5],>32 µg/mL
7,Cn1cc(NC(=O)c2cc(NC(=O)c3nc(NC(=O)c4scc(Br)c4Cl)cn3C)cn2C)cc1C(=O)NCCN1CCSCC1 [Ig-10],>32 µg/mL

# Test system: E. coli ATCC 25922
# Assay: NCCLS broth microdilution MIC
# Type: cell-based
# Conditions: D = E. coli ATCC 25922
# Protocol: as §1
row,Compound,Minimum Inhibitory Concentration (MIC)
1,Cn1cc(NC(=O)c2cc(NC(=O)c3cc(NC(=O)c4cc(NC(=O)c5sccc5Cl)cn4C)cn3C)cn2C)cc1C(=O)NCCN1CCOCC1 [Ie-12],>32 µg/mL
2,Cn1cc(NC(=O)c2cc(NC(=O)c3cc(NC(=O)c4sccc4Cl)cn3C)cn2C)cc1C(=O)NCCN1CCC(F)CC1 [Ie-13],>32 µg/mL
3,Cn1cc(NC(=O)c2cc(NC(=O)c3cc(NC(=O)c4scc(Br)c4Cl)cn3C)cn2C)cc1C(=O)NCCN1CCSCC1 [Ie-14],>32 µg/mL
4,Cn1cc(NC(=O)c2cc(NC(=O)c3cc(NC(=O)c4scc(Br)c4Cl)cn3C)cn2C)cc1C(=O)NCCN1CCCCC1 [Ie-15],"+ (+ = MIC from 12 to 32, inclusive)"
5,Cn1cc(NC(=O)c2cc(NC(=O)c3nc(NC(=O)c4scc(Br)c4Cl)cn3C)cn2C)cc1C(=O)NCCN1CCSCC1 [Ig-10],>32 µg/mL

# Same assay, conditions: Escherichia coli, ATCC25922, read-out: Minimum Inhibitory Concentration (MIC)
row,Compound,MIC
1,"Cn1cc(NC(=O)c2cc(NC(=O)c3cc(NC=O)cn3C)cn2C)cc1C(=O)NCCC(=N)N [Distamycin, distamycin, reference compound]",> 32 µg/mL
2,"Cn1cc(NC(=O)c2cc(NC(=O)CNC(=N)N)cn2C)cc1C(=O)NCCC(=N)N [Netropsin, netropsin, reference compound]",< 4 µg/mL

# Same assay, conditions: Escherichia coli, ATCC25922; D = E. coli ATCC 25922; read-out: Minimum Inhibitory Concentration (MIC)
row,Compound,MIC
1,Cn1cc(NC(=O)c2cc(NC(=O)c3ccc(NC(=O)c4nc(NC(=O)c5sccc5Cl)cn4C)cc3)cn2C)cc1C(=O)NCCN1CCC(F)(F)CC1 [Ih-2],> 32 µg/mL
2,"CC1COc2c(N3CCN(C)CC3)c(F)cc3c(=O)c(C(=O)O)cn1c23 (stereo not drawn) [Ofloxacin, reference compound]",< 4 µg/mL

# Test system: B. cereus ATCC 11778
# Assay: NCCLS broth microdilution MIC
# Type: cell-based, Bacillus cereus
# Conditions: Bacillus cereus, ATCC11778, read-out: Minimum Inhibitory Concentration (MIC)
# Protocol: as §1
row,Compound,MIC
1,"Cn1cc(NC(=O)c2cc(NC(=O)c3cc(NC=O)cn3C)cn2C)cc1C(=O)NCCC(=N)N [Distamycin, distamycin, reference compound]",4 to 12 µg/mL
2,"Cn1cc(NC(=O)c2cc(NC(=O)CNC(=N)N)cn2C)cc1C(=O)NCCC(=N)N [Netropsin, netropsin, reference compound]",< 4 µg/mL

# Same assay, conditions: Bacillus cereus, ATCC11778; C = B. cereus ATCC 11778; read-out: Minimum Inhibitory Concentration (MIC)
row,Compound,MIC
1,Cn1cc(NC(=O)c2cc(NC(=O)c3ccc(NC(=O)c4nc(NC(=O)c5sccc5Cl)cn4C)cc3)cn2C)cc1C(=O)NCCN1CCC(F)(F)CC1 [Ih-2],> 32 µg/mL
2,"CC1COc2c(N3CCN(C)CC3)c(F)cc3c(=O)c(C(=O)O)cn1c23 (stereo not drawn) [Ofloxacin, reference compound]",< 4 µg/mL

# Same assay, conditions: C = B. cereus ATCC 11778
row,Compound,Minimum Inhibitory Concentration (MIC)
1,Cn1cc(NC(=O)c2cc(NC(=O)c3cc(NC(=O)c4cc(NC(=O)c5sccc5Cl)cn4C)cn3C)cn2C)cc1C(=O)NCCN1CCOCC1 [Ie-12],+++ (+++ = MIC ≦4)
2,Cn1cc(NC(=O)c2cc(NC(=O)c3cc(NC(=O)c4sccc4Cl)cn3C)cn2C)cc1C(=O)NCCN1CCC(F)CC1 [Ie-13],+++ (+++ = MIC ≦4)
3,Cn1cc(NC(=O)c2cc(NC(=O)c3cc(NC(=O)c4scc(Br)c4Cl)cn3C)cn2C)cc1C(=O)NCCN1CCSCC1 [Ie-14],+++ (+++ = MIC ≦4)
4,Cn1cc(NC(=O)c2cc(NC(=O)c3cc(NC(=O)c4scc(Br)c4Cl)cn3C)cn2C)cc1C(=O)NCCN1CCCCC1 [Ie-15],+++ (+++ = MIC ≦4)
5,Cn1cc(NC(=O)c2cc(NC(=O)c3nc(NC(=O)c4scc(Br)c4Cl)cn3C)cn2C)cc1C(=O)NCCN1CCSCC1 [Ig-10],+++ (+++ = MIC ≦4)
